Measured values: the NIST ThermoML archive (doi:10.1016/j.tca.2013.03.018)

Conditions: Liquid, DSC

CCCCCCCCO [octan-1-ol]
Conditions	vapor or sublimation pressure [kPa]
333.69 K	0.2242
333.97 K	0.2242
334.46 K	0.2376
341.76 K	0.3855
342.1 K	0.3855
343.33 K	0.372
344.5 K	0.3855
348.2 K	0.5736
348.72 K	0.587
349.1 K	0.6004
349.38 K	0.587
352.09 K	0.7483
352.98 K	0.802
353.96 K	0.8087
354.96 K	0.7886
357.9 K	1.071
357.94 K	1.057
357.99 K	1.057
358.41 K	1.071
362.88 K	1.434
363.3 K	1.447
363.51 K	1.46
364.35 K	1.474
369.69 K	2.105
369.76 K	2.092
369.9 K	2.132
370 K	2.132
379.04 K	3.436
379.35 K	3.489
379.45 K	3.489
379.49 K	3.489
387.2 K	5.169
387.28 K	5.156
387.87 K	5.182
387.92 K	5.169
407.24 K	13.57
408.44 K	13.58
408.9 K	13.55
409.3 K	13.55
435.48 K	40.47
438.31 K	40.53
438.58 K	40.53
438.8 K	40.53
468.15 K	101.4
468.47 K	101.4
